Results: ChEMBL document CHEMBL3864130, “A novel lead of P-selectin inhibitor: Discovery, synthesis, bioassays and action mechanism” (2016)
Active and inactive are the calls of the source. The rule behind the calls is not given here.

Tests used:
Mus musculus [1] = assay: Antiinflammatory activity in xylene induced ICR mouse ear edema model assessed as decrease in ear swelling at 0.11 mmol/kg, po pretreated for 30 mins followed by topical administration of xylene measured after 2 hrs; type: functional, organism-based
Rattus norvegicus [2] = assay: Antithrombotic activity in Sprague-Dawley rat model of thrombosis assessed as inhibition of thrombus formation at 167 umol/kg, po measured after 30 mins; type: functional, organism-based
Mus musculus [3] = assay: Antithrombosis activity in ferric cholride induced ICR mouse model of thrombosis assessed as inhibition of thrombus formation at 240 umol/kg, po measured after 15 mins; type: functional, organism-based
[4] = molecular target: T1, P-selectin (Homo sapiens) (UniProt P16109); assay: Binding affinity to P-selectin (unknown origin) assessed as maximal absorbance at 352 nanometer at 0.18 mM by UV spectroscopy
T1 sequence (whole entry): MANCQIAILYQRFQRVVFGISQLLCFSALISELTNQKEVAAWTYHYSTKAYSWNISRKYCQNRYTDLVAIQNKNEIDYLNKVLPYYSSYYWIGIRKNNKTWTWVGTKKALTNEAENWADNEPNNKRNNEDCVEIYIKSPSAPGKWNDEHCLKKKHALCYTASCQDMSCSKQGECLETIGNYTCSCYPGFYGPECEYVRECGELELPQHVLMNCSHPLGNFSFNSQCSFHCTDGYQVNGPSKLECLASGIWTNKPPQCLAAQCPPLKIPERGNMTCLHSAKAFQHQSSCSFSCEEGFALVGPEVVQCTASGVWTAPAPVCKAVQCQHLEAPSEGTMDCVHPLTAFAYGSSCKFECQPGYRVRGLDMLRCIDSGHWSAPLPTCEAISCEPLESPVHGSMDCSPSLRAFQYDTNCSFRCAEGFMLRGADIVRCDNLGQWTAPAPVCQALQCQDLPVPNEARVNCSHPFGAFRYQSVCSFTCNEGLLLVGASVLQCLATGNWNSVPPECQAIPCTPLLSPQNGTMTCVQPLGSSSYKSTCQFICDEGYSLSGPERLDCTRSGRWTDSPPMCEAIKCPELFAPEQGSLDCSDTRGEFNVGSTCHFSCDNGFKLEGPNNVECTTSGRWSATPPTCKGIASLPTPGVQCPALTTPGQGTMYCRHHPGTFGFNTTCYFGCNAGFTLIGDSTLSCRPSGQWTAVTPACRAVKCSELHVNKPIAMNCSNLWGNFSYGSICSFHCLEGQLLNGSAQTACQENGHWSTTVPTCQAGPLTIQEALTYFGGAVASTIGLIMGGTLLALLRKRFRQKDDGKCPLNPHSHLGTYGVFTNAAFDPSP

[5] = molecular target: T2, P-selectin (Rattus norvegicus) (UniProt P98106); assay: Downregulation of P-selectin expression in arachidonic acid-activated Sprague-Dawley rat platelets assessed as P-selectin levels pretreated with platelets followed by arachidonic acid addition measured after 3 mins by ELISA
T2 sequence (whole entry): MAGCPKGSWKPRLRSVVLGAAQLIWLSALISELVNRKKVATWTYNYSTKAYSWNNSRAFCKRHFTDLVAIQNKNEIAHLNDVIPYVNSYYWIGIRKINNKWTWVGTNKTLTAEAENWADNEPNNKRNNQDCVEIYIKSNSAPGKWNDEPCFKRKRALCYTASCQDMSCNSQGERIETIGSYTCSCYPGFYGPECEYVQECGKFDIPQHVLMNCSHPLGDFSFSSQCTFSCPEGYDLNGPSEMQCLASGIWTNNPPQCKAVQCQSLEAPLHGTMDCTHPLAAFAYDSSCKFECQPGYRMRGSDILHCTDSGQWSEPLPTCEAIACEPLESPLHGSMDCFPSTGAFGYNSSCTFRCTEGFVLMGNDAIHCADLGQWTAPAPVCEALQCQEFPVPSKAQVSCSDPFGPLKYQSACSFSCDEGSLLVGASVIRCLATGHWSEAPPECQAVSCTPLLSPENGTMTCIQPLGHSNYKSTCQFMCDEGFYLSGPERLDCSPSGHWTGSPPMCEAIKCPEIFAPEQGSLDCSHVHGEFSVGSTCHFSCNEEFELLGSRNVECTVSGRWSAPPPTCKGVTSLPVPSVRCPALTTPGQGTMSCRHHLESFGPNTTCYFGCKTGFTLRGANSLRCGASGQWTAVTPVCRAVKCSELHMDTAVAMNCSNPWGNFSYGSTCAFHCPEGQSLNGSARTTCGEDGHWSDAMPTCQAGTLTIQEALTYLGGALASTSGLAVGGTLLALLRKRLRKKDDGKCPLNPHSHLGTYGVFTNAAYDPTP

[6] = molecular target: T1, P-selectin (Homo sapiens); assay: Binding affinity to P-selectin (unknown origin) assessed as maximal absorbance at 340.8 nanometer at 0.18 mM by UV spectroscopy
Mus musculus [7] = assay: Antithrombosis activity in ferric chloride induced ICR mouse model of thrombosis assessed as inhibition of thrombus formation at 200 nmol/kg, po measured after 15 mins; type: functional, organism-based
[8] = molecular target: T1, P-selectin (Homo sapiens); assay: Binding affinity to P-selectin (unknown origin) assessed as hyperchromic effect at 340.8 nanometer at 0.42 mM by UV spectroscopy
Rattus norvegicus [9] = assay: Antithrombotic activity in po dosed Sprague-Dawley rat model of thrombosis assessed as inhibition of thrombus formation measured after 30 mins; type: functional
Mus musculus [10] = assay: Antiinflammatory activity in xylene induced ICR mouse ear edema model assessed as decrease in ear swelling pretreated orally for 30 mins followed by topical administration of xylene measured after 2 hrs; type: functional
[11] = molecular target: T2, P-selectin (Rattus norvegicus); assay: Downregulation of P-selectin expression in arachidonic acid-activated Sprague-Dawley rat platelets at 200 to 2000 nM pretreated with platelets followed by arachidonic acid addition measured after 3 mins by ELISA
[12] = molecular target: T2, P-selectin (Rattus norvegicus); assay: (§1) Downregulation of P-selectin expression in arachidonic acid-activated Sprague-Dawley rat platelets assessed as mean fluorescence intensity at 20 nM pretreated for 30 mins followed by arachidonic acid addition measured after 5 mins by phycoerythrin-anti-[…] staining-based flow cytometry (reference value: 1621)
[13] = molecular target: T1, P-selectin (Homo sapiens); assay: Binding affinity to P-selectin (unknown origin) assessed as red shift at 352 nanometer at 0.42 mM by UV spectroscopy
[14] = molecular target: T2, P-selectin (Rattus norvegicus); assay: as §1, with “as” for “as mean”, “200” for “20”
Mus musculus [15] = assay: Decrease in serum TNF-alpha level in xylene induced ICR mouse ear edema model administered orally 30 mins prior to topical administration of xylene; type: functional
Mus musculus [16] = assay: Decrease in serum IL8 level in xylene induced ICR mouse ear edema model administered orally 30 mins prior to topical administration of xylene; type: functional
[17] = molecular target: T2, P-selectin (Rattus norvegicus); assay: as §1, with “as” for “as mean”, “2000” for “20”
Mus musculus [18] = assay: Decrease in serum IL8 level in xylene induced ICR mouse ear edema model at 2 nmol/kg,po pretreated for 30 mins followed by topical administration of xylene; type: functional
[19] = molecular target: T1, P-selectin (Homo sapiens); assay: Binding affinity to P-selectin (unknown origin) assessed as bathochromic shift at 340.8 nanometer at 0.42 mM by UV spectroscopy
Mus musculus [20] = species on record: Mus musculus; assay: Potency index, ratio of compound efficacy to aspirin efficacy in ferric chloride induced ICR mouse model of thrombosis; type: functional
[21] = molecular target: T1, P-selectin (Homo sapiens); assay: Binding affinity to P-selectin (unknown origin) assessed as maximal absorbance at 295.4 nanometer at 0.18 mM by UV spectroscopy
Mus musculus [22] = assay: Potency index, ratio of compound efficacy to aspirin efficacy in xylene induced ICR mouse ear edema model; type: functional
Rattus norvegicus [23] = species on record: Rattus norvegicus; assay: Potency index, ratio of compound efficacy to aspirin efficacy for antithrombotic activity in Sprague-Dawley rat model of thrombosis; type: functional
[24] = molecular target: T1, P-selectin (Homo sapiens); assay: Binding affinity to P-selectin (unknown origin) assessed as red shift at 295.4 nanometer at 0.42 mM by UV spectroscopy
[25] = molecular target: T2, P-selectin (Rattus norvegicus); assay: Downregulation of P-selectin expression in arachidonic acid-activated Sprague-Dawley rat platelets assessed as decrease in fluorescence intensity pretreated for 30 mins followed by arachidonic acid addition measured after 5 mins by phycoerythrin-anti-[…] staining-based flow cytometry

CC(=O)Oc1ccccc1C(=O)O
Activity (Mus musculus [1]): Active
inhibition (Rattus norvegicus [2]): Active
inhibition (Mus musculus [3]): Active

O=C(O)[C@H](Cc1ccccc1)NCCc1nc(CO)cc2c1[nH]c1ccccc12
Activity [4]: 0.339
MEC [5]: 200 nM
Activity [6]: 0.355
inhibition (Mus musculus [7]): Active
Activity [8]: 51.2%
MED (Rattus norvegicus [9]): 20 nmol/kg
inhibition (Rattus norvegicus [9]): Dose-dependent effect
Activity (Mus musculus [10]): Dose-dependent effect
MED (Mus musculus [10]): 20 nmol/kg
Activity [11]: Active
Flu intensity [12]: 871
Activity [13]: 1.4 nm
Flu intensity [14]: 754
MEC (Mus musculus [15]): 200 nmol/kg
Activity (Mus musculus [16]): Dose-dependent effect
MEC (Mus musculus [16]): 2 nmol/kg
Flu intensity [17]: 665
Activity (Mus musculus [18]): Active
Activity [19]: 0.6 nm
Ratio (Mus musculus [20]): 1200
Activity [21]: 0.451
Ratio (Mus musculus [22]): 550
Ratio (Rattus norvegicus [23]): 835
Activity [24]: 1.4 nm
Activity [25]: Dose-dependent effect
MEC [25]: 20 nM
